The source of these data is ChEMBL document CHEMBL1125981, “Enantioselective total synthesis and pharmacologic profile of 12-deoxy-12(S)-methyl leukotriene B4” (Bioorg Med Chem Lett, 1991).

The target in assay [1] is Leukotriene B4 receptor 1 (Homo sapiens, UniProt Q15722). Kind of assay: Compound was tested for its antagonist activity in a LTB4 human neutrophil receptor binding assay using the natural ligand itself.
The species named for assay [2] is Homo sapiens. Put plainly: Compound was tested for its ability to inhibit human neutrophil degranulation induced by LTB4. It is filed as functional.

Molecules are shown by their SMILES.

Chain of Leukotriene B4 receptor 1 (Q15722 whole entry): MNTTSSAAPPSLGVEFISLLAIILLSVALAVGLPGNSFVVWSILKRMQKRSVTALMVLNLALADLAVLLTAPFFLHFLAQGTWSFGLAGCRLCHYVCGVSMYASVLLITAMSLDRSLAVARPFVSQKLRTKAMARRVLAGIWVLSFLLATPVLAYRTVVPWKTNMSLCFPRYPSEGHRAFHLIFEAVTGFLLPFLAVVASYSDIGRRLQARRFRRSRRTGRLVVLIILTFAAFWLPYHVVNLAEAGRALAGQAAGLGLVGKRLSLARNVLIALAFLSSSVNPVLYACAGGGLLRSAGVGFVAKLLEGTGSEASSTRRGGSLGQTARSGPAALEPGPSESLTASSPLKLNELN

As to `CCCCC/C=C\C[C@@H](C)/C=C/C=C/C=C/[C@@H](O)CCCC(=O)O`, the IC50 in assay [1] came to 3.8 µM; in assay [2], 3.4 µM.

The IC50 is the midpoint of a concentration-inhibition curve. A low value points to inhibition by little substance.
